The test system of experiment [1] is S. pneumoniae (LRSA). Put plainly: in vitro antibacterial activity (MIC), S. pneumoniae (LRSA). The format is cell-based. As to conditions: Streptococcus pneumoniae. From the text:
(§1) The in vitro antibacterial activity of the compound of the present invention may be assessed by following procedures recommended in (1) National Committee for Clinical Laboratory Standards (January 2003), Methods for dilution antimicrobial tests for bacteria that grow aerobically, Approved Standard (6th ed), M7-A6, NCCLS, Wayne, Pa.; (2) National Committee for Clinical Laboratory Standards (March 2001), Methods for antimicrobial susceptibility testing of anaerobic bacteria, Approved Standard (5th ed), M11-A4, NCCLS, Wayne, Pa.; (3) National Committee for Clinical Laboratory Standards (Jan. 2003), MIC testing supplemental tables, M100-S13 (for use with M7-A6), NCCLS, Wayne, Pa.; and (4) Murray P R, Baron E J, Jorgensen J H, et al. Manual of Clinical Microbiology (8th ed) Washington, D.C.: American Society for Microbiology Press, 2003. The antibacterial activity can be presented in the form of MIC value. The MIC value is the lowest concentration of drug, which prevented macroscopically visible growth under the conditions of the test.

The target in experiment [2] is T1, MAO-A (Homo sapiens, UniProt P21397).
T1 sequence (P21397 1-527): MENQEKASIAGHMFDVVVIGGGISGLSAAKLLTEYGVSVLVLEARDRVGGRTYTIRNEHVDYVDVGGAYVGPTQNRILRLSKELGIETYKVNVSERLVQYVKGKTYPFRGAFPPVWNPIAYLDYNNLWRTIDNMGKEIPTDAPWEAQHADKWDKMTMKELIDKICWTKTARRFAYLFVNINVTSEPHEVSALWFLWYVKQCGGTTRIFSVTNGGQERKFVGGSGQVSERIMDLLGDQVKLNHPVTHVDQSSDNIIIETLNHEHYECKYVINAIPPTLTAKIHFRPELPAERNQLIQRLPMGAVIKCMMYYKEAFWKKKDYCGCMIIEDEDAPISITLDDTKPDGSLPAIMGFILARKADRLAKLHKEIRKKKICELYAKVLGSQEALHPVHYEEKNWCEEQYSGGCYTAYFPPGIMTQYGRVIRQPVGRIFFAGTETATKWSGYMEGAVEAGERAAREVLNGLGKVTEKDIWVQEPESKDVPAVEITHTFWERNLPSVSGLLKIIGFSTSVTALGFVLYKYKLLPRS
Put plainly: monoamine oxidase inhibition, MAO-A. It is filed as biochemical. The following applies: substrate at Km 64 μM; MAO-A 0.01 mg/mL. The method, then:
(§2) MAO-A and B inhibition were analyzed by measuring the inhibition of conversion of an MAO substrate, 1-methyl-4-(1-methyl-2-pyrryl)-1,2,3,6-tetrahydropyridine, to its dihydropyridinium metabolite (λ=421 nm). The substrate concentration was equal to the Km (64 μM for MAO-A and 43 μM for MAO-B). The MAO-A concentration was 0.01 mg/mL, and the MAO-B concentration was 0.008 mg/mL. Each inhibitor was tested at seven concentrations. Percent inhibition at each concentration was established relative to the uninhibited control rate, and the IC50 and Ki values were calculated.

Experiment [3] addresses T2, MAO-B (Homo sapiens, UniProt P27338).
T2 sequence (P27338 1-520): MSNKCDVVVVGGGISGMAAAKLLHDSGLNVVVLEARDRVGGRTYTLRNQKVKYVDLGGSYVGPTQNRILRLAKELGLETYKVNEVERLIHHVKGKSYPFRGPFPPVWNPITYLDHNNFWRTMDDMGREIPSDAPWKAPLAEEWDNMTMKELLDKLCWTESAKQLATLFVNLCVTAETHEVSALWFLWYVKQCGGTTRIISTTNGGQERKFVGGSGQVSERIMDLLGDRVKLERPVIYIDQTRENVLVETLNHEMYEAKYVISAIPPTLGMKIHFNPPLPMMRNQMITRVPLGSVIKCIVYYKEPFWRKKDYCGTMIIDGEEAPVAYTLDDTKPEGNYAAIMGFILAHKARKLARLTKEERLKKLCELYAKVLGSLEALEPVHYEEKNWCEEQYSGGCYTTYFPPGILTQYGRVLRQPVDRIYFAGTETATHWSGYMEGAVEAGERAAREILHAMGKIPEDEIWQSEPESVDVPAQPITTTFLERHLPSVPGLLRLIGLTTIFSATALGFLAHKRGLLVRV
Put plainly: monoamine oxidase inhibition, MAO-B. It is filed as biochemical. As to conditions: substrate at Km 43 μM; MAO-B 0.008 mg/mL. As to the method: as §2

In experiment [4] the test system is S. aureus (LORSA). Nature of the experiment: in vitro antibacterial activity (MIC), S. aureus (LORSA). The following applies: Staphylococcus aureus. It is filed as cell-based.
Excerpt: as §1

For experiment [5], the system named is E. faecalis (VREF). Put plainly: in vitro antibacterial activity (MIC), E. faecalis (VREF). The following applies: Enterococcus faecalis. It is filed as cell-based.
Excerpt: as §1

In experiment [6] the test system is E. faecium (VREF). Nature of the experiment: in vitro antibacterial activity (MIC), E. faecium (VREF). As to conditions: Enterococcus faecium. The format is cell-based.
Excerpt: as §1

Experiment [7] has as its system E. faecalis MGH-2 EF 1-1. Put plainly: in vitro antibacterial activity, E. faecalis MGH-2 EF 1-1. It is filed as cell-based. The following applies: Enterococcus faecalis, MGH2EF11; strain MGH-2 EF 1-1.
Excerpt: as §1

For experiment [8], the system named is S. aureus UC-76 SA-1. Put plainly: in vitro antibacterial activity, S. aureus UC-76 SA-1. The format is cell-based. The following applies: Staphylococcus aureus, UC76; strain UC-76 SA-1.
Excerpt: as §1

For experiment [9], the system named is S. pneumoniae SV1 SP-3. Nature of the experiment: in vitro antibacterial activity, S. pneumoniae SV1 SP-3. The format is cell-based. As to conditions: Streptococcus pneumoniae, SV1SP3; strain SV1 SP-3.
Excerpt: as §1

Drawing on patent publication US20060229348A1, “Oxindole oxazolidinone as antibacterial agent” (priority 2005, published 2006), this text covers MIC90 and Ki for eight compounds.

Converted amounts (≈) assume the structure as drawn.

With `CCN1C(=O)Cc2cc(N3C[C@H](CNC(=O)OC)OC3=O)ccc21` [Compound No. 1, (5S)-[3-(1-ethyl-2-oxo-2,3-dihydro-1H-indol-5-yl)-2-oxo-oxazolidin-5-ylmethyl]-carbamic acid methyl ester], the MIC90 in [1] stood at 2 µg/mL (≈ 6 µM); in [4], 4 µg/mL (≈ 12 µM); in experiment [5], 4 µg/mL (≈ 12 µM); in experiment [6] it was 4 µg/mL (≈ 12 µM). The figures for the Ki in experiment [2] and in [3] were 880 µM and 57.4 µM, respectively.

In the case of `COC(=O)NC[C@H]1CN(c2ccc3c(c2)CC(=O)N3C)C(=O)O1` [Example 2, (S)-[3-(1-methyl-2-oxo-2,3-dihydro-1H-indol-5-yl)-2-oxo-oxazolidin-5-ylmethyl]-carbamic acid methyl ester], the MIC90 in experiment [7] worked out at 2 µg/mL (≈ 6.26 µM); in [8] it was 4 µg/mL (≈ 12.5 µM); in [9] it was 1 µg/mL (≈ 3.13 µM).

With `COC(=O)NC[C@H]1CN(c2ccc3c(c2)CC(=O)N3CCF)C(=O)O1` [Example 3, (S)-{3-[1-(2-fluoro-ethyl)-2-oxo-2,3-dihydro-1H-indol-5-yl]-2-oxo-oxazolidin-5-ylmethyl}-carbamic acid methyl ester], the MIC90 was 2 µg/mL (≈ 5.69 µM) in experiment [7], 4 µg/mL (≈ 11.4 µM) in experiment [8] and 2 µg/mL (≈ 5.69 µM) in experiment [9].

For `COC(=O)NC[C@H]1CN(c2ccc3c(c2)CC(=O)N3C(C)C)C(=O)O1` [Example 4, (S)-[3-(1-isopropyl-2-oxo-2,3-dihydro-1H-indol-5-yl)-2-oxo-oxazolidin-5-ylmethyl]-carbamic acid methyl ester], the values for the MIC90 in experiment [7], in experiment [8] and in experiment [9] were 8 µg/mL (≈ 23 µM), 8 µg/mL (≈ 23 µM) and 4 µg/mL (≈ 11.5 µM), respectively.

`CCCN1C(=O)Cc2cc(N3C[C@H](CNC(=O)OC)OC3=O)ccc21` [Example 5, (S)-[2-oxo-3-(2-oxo-1-propyl-2,3-dihydro-1H-indol-5-yl)-oxazolidin-5-ylmethyl]-carbamic acid methyl ester]: the MIC90 in [7] came out at 4 µg/mL (≈ 11.5 µM); in [8], 8 µg/mL (≈ 23 µM); in experiment [9], 4 µg/mL (≈ 11.5 µM).

On to `COC(=O)NC[C@H]1CN(c2ccc3c(c2)CC(=O)N3C2CC2)C(=O)O1` [Example 6, (S)-[3-(1-cyclopropyl-2-oxo-2,3-dihydro-1H-indol-5-yl)-2-oxo-oxazolidin-5-ylmethyl]-carbamic acid methyl ester], for which the MIC90 in [7], in experiment [8] and in experiment [9] was 4 µg/mL (≈ 11.6 µM) in each case.

For the compound `COC(=O)NC[C@H]1CN(c2ccc3c(c2)CC(=O)N3CC2CC2)C(=O)O1` [Example 7, (S)-[3-(1-cyclopropylmethyl-2-oxo-2,3-dihydro-1H-indol-5-yl)-2-oxo-oxazolidin-5-ylmethyl]-carbamic acid methyl ester], the MIC90 in experiment [7] was found to be 8 µg/mL (≈ 22.3 µM); in experiment [8], 8 µg/mL (≈ 22.3 µM); in experiment [9], 4 µg/mL (≈ 11.1 µM).

`COC(=O)NC[C@H]1CN(c2ccc3c(c2)CC(=O)N3C(C)CF)C(=O)O1` (stereo partly drawn) [Example 8, (S)-{3-[1-(2-fluoro-1-methyl-ethyl)-2-oxo-2,3-dihydro-1H-indol-5-yl]-2-oxo-oxazolidin-5-ylmethyl}-carbamic acid methyl ester]: the MIC90 in experiment [7], in [8] and in experiment [9] was 4 µg/mL (≈ 10.9 µM) throughout.

Broadly, the MIC90 is an inhibitory concentration at the 90% level, which refers to growth in some studies and to a panel of isolates in others. A low value points to higher susceptibility. One may read the Ki as the dissociation constant of the complex between target and ligand, obtained from inhibition or displacement. Low readings indicate a stronger hold on the target, high ones a looser hold on the target.
